# Columns and labels:
# Gaa KO mice [1] = test: single fiber analysis (LAMP1/LC3 co-immunofluorescence, white gastrocnemius); assay type: in vivo; settings: Gaa KO mice
# Description: FIG. 17 depicts co-immunofluorescent staining of LAMP1 (green) (see for example, “B”) and LC3 (red) (see, for example, “A”) in single fibers isolated from the white gastrocnemius of Gaa KO mice treated with a vehicle, alglucosidase alfa, or ATB200. “C” depicts clearance of autophagic debris and absence of enlarged lysosome. A minimum of 30 fibers were examined from each animal.
# As a result, a significant portion of muscle fibers analyzed (36-60%) from ATB200-treated mice appeared normal or near-normal.
# [2] = system: subjects with late-onset Pompe disease (LOPD); settings: cited from earlier work
# [3] = system: adult subjects with late-onset Pompe disease (LOPD); test: ATB200-03 (PROPEL): creatine kinase (CK) biomarker of muscle injury; assay type: in vivo, human; settings: after 52 weeks, overall population (p<0.001)
# Description: (§1) The ATB200-03 trial was a phase 3 double-blind, randomized, multicenter, international study of ATB200/AT2221 in adult subjects with late-onset Pompe disease (LOPD) who had received enzyme replacement therapy with alglucosidase alfa (i.e., ERT-experienced) or who had never received ERT (i.e., ERT naïve), compared with alglucosidase alfa/placebo.
# (§2) Pharmacodynamic assessments included measurement of biomarkers of muscle injury (creatine kinase (CK) and disease substrate (urinary hexose tetrasaccharide (Hex4)). Sparse blood samples were collected for determination of total GAA protein levels and AT2221 concentrations in plasma for a population PK analysis in ERT-experienced subjects. Serial blood sampling for characterization of the PK profile of total GAA protein and AT2221 were done in ERT-naïve subjects.
# (§3) Pharmacodynamic endpoints were as follows: • change from baseline to Week 52 in serum CK level • change from baseline to Week 52 in urinary Hex4 level
# [4] = system: adult subjects with late-onset Pompe disease (LOPD); test: ATB200-03 (PROPEL) phase 3 trial: sitting forced vital capacity; assay type: in vivo, human
# Description: as §1
# (§4) Efficacy assessments (i.e., functional assessments) included evaluation of ambulatory function (6MWT), motor function tests (Gait, Stair, Gower, and Chair maneuver (GSGC) test and Timed Up and Go (TUG) test), muscle strength (manual muscle testing and quantitative muscle testing), and pulmonary function tests (FVC, SVC, MIP, MEP, and SNIP). Patient reported outcomes (Rasch-built Pompe-specific Activity (R Pact) Scale, EuroQol 5 Dimensions 5 Levels Instrument (EQ-5D-5L), Patient-Reported Outcomes Measurement Information System (PROMIS®) instruments for physical function, fatigue, dyspnea, and upper extremity, and Subject's Global Impression of Change) were recorded. The Physician's Global Impression of Change were also performed.
# Key secondary efficacy endpoints in a pre-specified hierarchical order of importance were as follows. These secondary endpoints were analyzed using analysis of covariance (ANCOVA) model with last observation carried forward (ITT LOCF). • change from baseline to Week 52 in sitting FVC (% predicted) • change from baseline to Week 52 in the manual muscle test score for the lower extremities • change from baseline to Week 52 in the total score for the PROMIS—physical function • change from baseline to Week 52 in the total score for the PROMIS—fatigue • change from baseline to Week 52 in GSGC total score
# (§5) PROPEL was a 52-week, double-blind randomized global study designed to assess the efficacy, safety and tolerability of AT-GAA compared to the current standard of care, alglucosidase alfa, an enzyme replacement therapy (ERT). The study enrolled 123 adult Pompe patients who still had the ability to walk and to breathe without mechanical ventilation and was conducted at 62 clinical sites in 24 countries on 5 continents. It was the largest controlled clinical study ever conducted in a lysosomal disorder.
# [5] = system: adult subjects with late-onset Pompe disease (LOPD); test: ATB200-03 (PROPEL): safety assessments; assay type: in vivo, human; settings: 52-week treatment
# Description: Safety assessments included monitoring of adverse events (AEs), including infusion associated reactions (IARs), clinical laboratory tests (chemistry, hematology, and urinalysis), vital signs, physical examinations including weight, electrocardiograms (ECGs), and immunogenicity. Concomitant medications and nondrug therapies were also be recorded.
# The safety profile of ATB200/AT2221 was characterized using incidence of treatment emergent adverse events (TEAEs), serious adverse events (SAEs), and AEs leading to discontinuation of study drug, frequency and severity of immediate and late IARs, and any abnormalities noted in other safety assessments. The impact of immunogenicity to ATB200 and alglucosidase alfa on safety and efficacy was also assessed.
# Safety Analyses. Safety data was summarized using counts and percentages for categorical data and descriptive statistics (mean, standard deviation, median, minimum, maximum) for continuous data.
# [6] = system: adult subjects with late-onset Pompe disease (LOPD); test: ATB200-03 (PROPEL) phase 3 trial: 6-minute walk test; assay type: in vivo, human
# Description: as §1
# Eligible subjects were randomly assigned in a 2:1 ratio to receive ATB200/AT2221 or alglucosidase alfa/placebo and stratified by ERT status (ERT-experienced, ERT-naïve) and baseline 6-minute walk distance (6MWD) (75 to <150 meters, 150 to <400 meters, ≥400 meters).
# as §4
# The primary efficacy endpoint was the change from baseline to Week 52 in 6MWD. The primary endpoint was tested for superiority of ATB200/AT2221 vs Alglucosidase alfa/placebo, using mixed-effect model for repeated measures (MMRM) and pre-specified nonparametric test in case of violation of normality.
# Efficacy Analyses. The primary efficacy endpoint (i.e., change from baseline to Week 52 in 6MWD) was analyzed using a parametric analysis of covariance (ANCOVA) model to compare between the new treatment and the control. This model would typically adjust for baseline 6MWD (as a continuous covariate), and the 2 factors used to stratify randomization: ERT status (ERT naïve vs. ERT-experienced) and baseline 6MWD (75 to <150 meters, 150 to <400 meters, ≥400 meters). However, the baseline 6MWD could not be used in the model twice (both as a continuous and a categorical variable) due to the expected high point biserial correlation between them. Thus, the 6MWD continuous variable remained in the model but the categorical 6MWD was removed. The ANCOVA model then had terms for treatment, baseline 6MWD (continuous), and ERT status (categorical).
# as §5
# [7] = system: adult subjects with late-onset Pompe disease (LOPD); test: ATB200-03 (PROPEL): Gait, Stair, Gower, Chair (GSGC) test; assay type: in vivo, human; settings: overall population, 52 weeks (p<0.05)
# Description: as §1, §4
# Key secondary efficacy endpoints in a pre-specified hierarchical order of importance were as follows. […]
# Gaa KO mice [8] = test: muscle biomarker analysis (LAMP1, LC3, dysferlin) in Gaa KO mice; assay type: in vivo; settings: FIG. 15B
# Protocol: The therapeutic effects of ATB200 and AT2221 were evaluated and compared against those of Alglucosidase alfa in Gaa KO mice. For the study, male Gaa KO (3- to 4-month old) and age-matched wild-type (WT) mice were used. Alglucosidase alfa was administered via bolus tail vein intravenous (IV) injection. In the co-administration regimen, AT2221 was administered via oral gavage (PO) 30 minutes prior to the IV injection of ATB200. Treatment was given biweekly. Treated mice were sacrificed after 14 days from the last administration and various tissues were collected for further analysis. Table 7 summarizes the study design:
# Tissue samples were also analyzed for biomarker changes following the methods discussed in: Khanna R, et al. (2012), “The pharmacological chaperone AT2220 increases recombinant human acid α-glucosidase uptake and glycogen reduction in a mouse model of Pompe disease,” Plos One 7(7): e40776; and Khanna, R et al. (2014), “The Pharmacological Chaperone AT2220 Increases the Specific Activity and Lysosomal Delivery of Mutant Acid α-Glucosidase, and Promotes Glycogen Reduction in a Transgenic Mouse Model of Pompe Disease,” PLoS ONE 9(7): e102092.
# [9] = system: adult subjects with late-onset Pompe disease (LOPD); test: ATB200-03 (PROPEL): urinary hexose tetrasaccharide (Hex4) biomarker; assay type: in vivo, human; settings: after 52 weeks, combined ERT switch and ERT naïve population (p<0.001)
# Description: as §1, §2, §3
# [10] = ERT switch (ERT-experienced) population (n=95)
# [11] = ERT treatment naïve population (n=27), listed as Alglucosidase alfa
# [12] = overall ERT switch and ERT naïve population (n=122)
substance,measurement,setting,value
"[199-arginine,223-histidine]prepro-α-glucosidase (human) [alglucosidase alfa]",Fibers with Autophagy Buildup,Gaa KO mice [1],>90%
same,Fibers with Normal or Near-normal Appearance,Gaa KO mice [1],<10%
same,subjects who did not show an initial improvement during treatment,[2]; 368 LOPD subjects from published studies,> 30%
same,duration of improvements in initial responders,[2]; longer-term studies,approximately 2 years
same,mean change in CK,[3],+15.6%
same,FVC CFBL at Week 52,[4]; [10],−4.0 (0.9) % predicted
same,FVC CFBL at Week 52,[4]; [11],−3.6 (1.8) % predicted
same,FVC CFBL at Week 52,"[4]; ERT treatment naïve population (n=27), listed as alglucosidase alpha",−3.6 % predicted
same,absolute decline in percent-predicted FVC,"[4]; after 52 weeks, combined population",4.0%
same,absolute decline in percent-predicted FVC,"[4]; over the course of the year, ERT switch patients",4.0%
same,FVC CFBL at Week 52,[4]; [12],−4.0 (0.8) % predicted
same,patients who discontinued treatment due to an adverse event,[5],2.6%
same,Injection associated reactions (IARs) reported,[5]; share of participants,26%
same,6MWD CFBL at Week 52,[6]; [10],0.0 m
same,6MWD CFBL at Week 52,[6]; ERT treatment naïve population (n=27),38 m
same,6MWD CFBL at Week 52,[6]; [11],+38.3 (11.1) m
same,6MWD CFBL at Week 52,[6]; [12],7 m
same,6MWD CFBL at Week 52,"[6]; overall ERT switch and ERT naïve population (n=122), listed as Alglucosidase alfa",+7.2 m
same,GSGC scores,[7],worsening
same,LC3 II level by western blot (autophagy),Gaa KO mice [8],modest
same,mean change in urine Hex-4,[9],+11.0%
